Patent US5756505A, “N-acylpiperazine derivative, antibacterial drug and anti-ulcer drug” (Shiseido Co., Ltd., priority 1995, dated 1998)

test system: not listed separately; assay: Tests for Safety (PD, AT, MTT), overall statement; conditions: not given
Source text: Based on the foregoing effect tests and safety tests, the anti-ulcer effect, antibacterial activity against HP, and safety of the example compounds of the present invention were studied.

Compound	safety (in words)
CC(C)Cc1cc(C(=O)N2CCN(CC(C)C)CC2)ccc1OCc1ccc(F)cc1 [Example 21, 1-[4-(4-fluorobenzyloxy)-3-isobutylbenzoyl]-4-isobutylpiperazine]	great improvement in safety
CC(C)Cc1cc(C(=O)N2CCN(CC(C)C)CC2)ccc1OCc1ccc(F)cc1.Cl [Example 22, 1-[4-(4-fluorobenzyloxy)-3-isobutylbenzoyl]-4-isobutylpiperazine hydrochloride]	great improvement in safety

test system: mice; assay: AT: Single Dose Toxicity Pretest; type: in vivo, mouse (male Slc:ICR); conditions: mouse, 2,000 mg/kg oral, one week
Procedure: AT: Single Dose Toxicity Pretest
Male Slc:ICR mice (5-week-old) were used. Each group has 3 to 5 mice and each mouse was fasted, but allowed free access to water, for 4 to 5 hours from 9 a.m. in the test day. Then, 2,000 mg/10 ml/kg of the sample compound dissolved or suspended in an aqueous solution of 0.5% sodium carboxymethylcellulose were orally administered thereto. To a control, only the vehicle was administered. […] The body weight was measured before and after the fasting as well as at the same time everyday. The dead animals were immediately subjected to autopsy and their organs were observed macroscopically. Also, the living animals were sacrificed with ether or carbon dioxide one week after the administration and then their organs were observed macroscopically.
The toxicity at the single dose of 2,000 mg/kg of the sample compound was expressed as being classified into 5 levels.
5: Mortality rate is 0%; no toxicity is found at all both in behavior and organs.
4: Mortality rate is 0%; while no toxicity is found in organs, slight toxicity is observed in behavior and body weight increase.
3: While there is a dead animal (though not all the animals are dead), no toxicity is found in organs.
2: Regardless of whether there is a dead animal or not, toxicity is found in organs.
1: All the animals are dead.

Compound	AT: toxicity at single dose, level
CC(C)Cc1cc(CC(=O)N2CCN(CC(C)C)CC2)ccc1OCc1ccccc1 [Example 15, 1-(4-benzyloxy-3-isobutylphenylacetyl)-4-isobutylpiperazine]	2

same assay, conditions: mouse, in vivo

Compound	AT: toxicity at single dose, level
CC(C)Cc1cc(C(=O)N2CCN(CC(C)C)CC2)ccc1OCc1ccc(Cl)cc1 [Example 17, 1-[4-(4-chlorobenzyloxy)-3-isobutylbenzoyl]-4-isobutylpiperazine]	2
CC(C)Cc1cc(C(=O)N2CCN(CC(C)C)CC2)ccc1OCc1ccccc1 [Example 16, 1-(4-benzyloxy-3-isobutylbenzoyl)-4-isobutylpiperazine]	2

test system: gastric corpus mucosa cells; assay: MTT: Cell Damaging and Protecting Effect Test; type: cell-based, rabbit (male Japanese White); conditions: final concentration 10^-4 M, 4 hours; smaller value is better; 100 µM

Compound	MTT: cell damaging rate
CC(C)Cc1cc(C(=O)N2CCN(CC(C)C)CC2)ccc1OCc1ccc(F)cc1F [Example 27, 1-[4-(2,4-difluorobenzyloxy)-3-isobutylbenzoyl]-4-isobutylpiperazine]	-119%
CC(C)CN1CCN(C(=O)c2ccc(OCc3ccc(F)cc3)cc2)CC1.Cl [Example 2, 1-[4-(4-fluorobenzyloxy)benzoyl]-4-isobutylpiperazine hydrochloride]	-6%
CC(C)Cc1cc(C(=O)N2CCN(CC(C)C)CC2)ccc1OCc1ccccc1F.Cl [Example 19, 1-[4-(2-fluorobenzyloxy)-3-isobutylbenzoyl]-4-isobutylpiperazine hydrochloride]	-55%
CC(C)CN1CCN(C(=O)c2ccc(OCc3ccc(F)cc3)cc2)CC1 [Example 5, 1-[4-(4-fluorobenzyloxy)benzoyl]-4-isobutylpiperazine]	-84%
CC(C)Cc1cc(C(=O)N2CCN(CC(C)C)CC2)ccc1OCc1ccc(F)cc1.O=C(O)C(=O)O [Example 25, 1-[4-(4-fluorobenzyloxy)-3-isobutylbenzoyl]-4-isobutylpiperazine oxalate]	-28%

Second part, the compound after the results:

MTT: cell damaging rate	Compound
29%	CC(C)Cc1cc(C(=O)N2CCN(CC(C)C)CC2)ccc1OCc1ccc(F)c(F)c1 [Example 26, 1-[4-(3,4-difluorobenzyloxy)-3-isobutylbenzoyl]-4-isobutylpiperazine]
-65%	CC(C)Cc1cc(C(=O)N2CCN(CC(C)C)CC2)ccc1OCc1ccc(F)cc1 [Example 21, 1-[4-(4-fluorobenzyloxy)-3-isobutylbenzoyl]-4-isobutylpiperazine]
-126%	CC(C)Cc1cc(C(=O)N2CCN(CC(C)C)CC2)ccc1OCc1ccc(F)cc1F.Cl [Example 24, 1-[4-(2,4-difluorobenzyloxy)-3-isobutylbenzoyl]-4-isobutylpiperazine hydrochloride]
-4%	CC(C)Cc1cc(C(=O)N2CCN(CC(C)C)CC2)ccc1OCc1ccc(F)cc1.Cl [Example 22, 1-[4-(4-fluorobenzyloxy)-3-isobutylbenzoyl]-4-isobutylpiperazine hydrochloride]
-33%	CC(C)Cc1cc(C(=O)N2CCN(CC(C)C)CC2)ccc1OCc1ccccc1F [Example 18, 1-[4-(2-fluorobenzyloxy)-3-isobutylbenzoyl]-4-isobutylpiperazine]
